One may read the IC50 as the concentration needed to halve the response being measured.

Sequence of ROCK2 (human) (O75116 whole entry, looked up): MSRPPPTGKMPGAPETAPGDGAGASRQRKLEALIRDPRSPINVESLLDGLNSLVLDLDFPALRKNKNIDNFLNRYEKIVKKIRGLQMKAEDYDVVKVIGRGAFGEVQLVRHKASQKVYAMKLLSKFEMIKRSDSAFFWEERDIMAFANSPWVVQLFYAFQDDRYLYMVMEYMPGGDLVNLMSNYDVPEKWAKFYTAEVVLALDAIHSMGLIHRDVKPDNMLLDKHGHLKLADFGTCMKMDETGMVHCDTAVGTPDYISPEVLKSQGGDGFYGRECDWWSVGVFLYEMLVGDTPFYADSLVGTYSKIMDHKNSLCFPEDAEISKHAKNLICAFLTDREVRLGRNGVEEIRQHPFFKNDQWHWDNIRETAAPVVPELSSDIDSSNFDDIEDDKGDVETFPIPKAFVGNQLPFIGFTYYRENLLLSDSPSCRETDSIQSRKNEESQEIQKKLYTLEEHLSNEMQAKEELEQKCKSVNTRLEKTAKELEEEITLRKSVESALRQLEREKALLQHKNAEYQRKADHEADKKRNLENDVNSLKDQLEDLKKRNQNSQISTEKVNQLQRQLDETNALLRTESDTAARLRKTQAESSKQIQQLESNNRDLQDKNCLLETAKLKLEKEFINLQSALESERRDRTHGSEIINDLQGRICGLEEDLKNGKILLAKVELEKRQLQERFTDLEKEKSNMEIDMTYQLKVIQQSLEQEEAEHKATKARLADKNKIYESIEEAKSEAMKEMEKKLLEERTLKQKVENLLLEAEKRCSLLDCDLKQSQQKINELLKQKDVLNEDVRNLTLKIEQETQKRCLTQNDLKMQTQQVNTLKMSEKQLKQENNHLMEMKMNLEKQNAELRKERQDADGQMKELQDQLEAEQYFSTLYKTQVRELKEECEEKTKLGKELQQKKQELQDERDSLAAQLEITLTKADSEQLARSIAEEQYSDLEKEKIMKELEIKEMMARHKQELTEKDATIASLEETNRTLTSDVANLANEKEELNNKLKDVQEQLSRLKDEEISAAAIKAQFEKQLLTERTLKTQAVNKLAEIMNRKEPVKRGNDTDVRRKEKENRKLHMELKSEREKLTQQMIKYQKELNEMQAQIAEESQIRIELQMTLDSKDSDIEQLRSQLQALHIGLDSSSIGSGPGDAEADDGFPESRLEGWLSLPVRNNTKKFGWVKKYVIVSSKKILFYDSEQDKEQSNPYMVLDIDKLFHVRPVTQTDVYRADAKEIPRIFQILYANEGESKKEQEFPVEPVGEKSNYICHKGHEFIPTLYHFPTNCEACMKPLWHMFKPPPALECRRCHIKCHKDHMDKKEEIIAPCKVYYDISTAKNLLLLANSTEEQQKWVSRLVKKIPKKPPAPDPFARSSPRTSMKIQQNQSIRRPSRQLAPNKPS

The experiment has as its target ROCK2 (human) (UniProt O75116). As to the kind of experiment: Assessment of ROCK2 Kinase Activity.
Consider `COc1cccc(CNC(=O)Nc2ccc(-c3cn[nH]c3)cc2N(C)C)c1`, for which the IC50 is less than 1 nM.

In turn, `COc1cccc(CN(C)C(=O)Nc2ccc(-c3cn[nH]c3)cc2N(C)CCN(C)C)c1` came in with a half-inhibitory concentration (IC50) of 8 nM.

`COc1cccc(CNC(=O)Nc2ccc(-c3cn[nH]c3)cc2Cl)c1` registered a half-maximal inhibitory concentration (IC50) of less than 1 nM.

The compound `COc1cccc(CNC(=O)Nc2ccc(-c3ccncc3)cc2)c1` returned an IC50 of 5 nM. This counts as single-digit nanomolar.

For `COc1cccc(CNC(=O)Nc2ccc(-c3c[nH]nc3C)cc2)c1`, the IC50 turned out to be 2 nM.

`COc1cccc(CNC(=O)Nc2ccc(-c3cn[nH]c3)cc2OC)c1` showed an IC50 of less than 1 nM.

`COc1cccc(CNC(=O)Nc2ccc(-c3ccnc(N)n3)cc2)c1`: the IC50 is 13 nM.

`COc1cccc(CNC(=O)Nc2ccc(-c3cn[nH]c3)cc2)c1`: the IC50 turned out to be 2 nM. This IC50 is about 6.5-fold lower than that of the compound before.

Compound `COc1cccc(CNC(=O)Nc2ccc(-c3cn[nH]c3)cc2F)c1` yielded a half-maximal inhibitory concentration (IC50) of less than 1 nM.

`COc1cccc(CNC(=O)Nc2ccc(-c3cn[nH]c3)cc2OCCN(C)C)c1`: the IC50 is less than 1 nM.

`COc1cccc(CNC(=O)Nc2ccc(-c3ccnc(N)c3)cc2)c1` yielded an IC50 of 44 nM.

As to `COc1cccc(CN(C)C(=O)Nc2ccc(-c3cn[nH]c3)cc2OCCN(C)C)c1`, the IC50 is less than 1 nM.

`O=C(NCc1cccc(Cl)c1)Nc1ccc(-c2cn[nH]c2)cc1`: the IC50 was 17 nM.

With `CCN(Cc1cccc(OC)c1)C(=O)Nc1ccc(-c2cn[nH]c2)cc1OCCN(C)C`, the IC50 was 3 nM.

Compound `COc1ccc(CNC(=O)Nc2ccc(-c3cn[nH]c3)cc2)cc1` came in with an IC50 of 2750 nM.

`COc1cccc(CNC(=O)Nc2ccc(-c3ncnc4[nH]ccc34)cc2)c1` came in with an IC50 of 188 nM.

`CCN(Cc1cccc(OC)c1)C(=O)Nc1ccc(-c2cn[nH]c2)cc1OCCN1CCCC1` gave an IC50 of less than 1 nM.

`O=C(NCc1cccc(F)c1)Nc1ccc(-c2cn[nH]c2)cc1`: the IC50 is 3 nM. This counts as single-digit nanomolar.

Regarding `O=C(NCc1ccccc1)Nc1ccc(-c2cn[nH]c2)cc1`, the IC50 amounted to 18 nM.

For the compound `Nc1cccc(CNC(=O)Nc2ccc(-c3cn[nH]c3)cc2)c1`, the IC50 was determined as 3 nM.

In turn, `COc1cccc(CNC(=O)Nc2ccc(-c3cn[nH]c3)cc2OCCN2CCCC2)c1` gave an IC50 of less than 1 nM.

`CCN(Cc1cccc(OC)c1)C(=O)Nc1ccc(-c2cn[nH]c2)cc1N(C)CCN(C)C` displayed an IC50 of 6 nM.

`Cc1cccc(CNC(=O)Nc2ccc(-c3cn[nH]c3)cc2)c1` had an IC50 of 33 nM.

The compound `COc1cccc(CN(C)C(=O)Nc2ccc(-c3cn[nH]c3)cc2OCCN2CCCC2)c1` gave an IC50 of less than 1 nM.

Take `COc1cccc(CNC(=O)Nc2ccc(-c3cn[nH]c3)cc2N(C)CCN(C)C)c1`: the IC50 is less than 1 nM.

As for `COc1ccccc1CNC(=O)Nc1ccc(-c2cn[nH]c2)cc1`, the half-inhibitory concentration (IC50) was found to be 26 nM.

Source of the values: the Kinase Knowledgebase extract (Sharma et al. 2016).
